Patent US8246758B2, “Neutral or alkaline medium chain peroxycarboxylic acid compositions and methods employing them” (Ecolab USA Inc., priority 2004, dated 2012)
Like-named read-outs stand apart in the source and are kept apart here.

Assays:
[1] = system: Trichophyton mentagrophytes ATCC 9533; assay: AOAC Fungicidal Activity of Disinfectants (955.17); type: cell-based; conditions: pH 6.5, 5 min, Ambient
Experimental: Activity against fungus, Trichophyton mentagrophytes ATCC 9533, was evaluated using the Fungicidal Activity of Disinfectants using Trichophyton mentagrophytes, Official Methods of Analysis of the Association of Official Analytical Chemists, paragraph 955.17. Composition KK was adjusted to pH 6.5 in synthetic hard water (400 ppm hardness) and tested for activity in the presence of a 5% organic soil load. Antimicrobial efficacy was determined by exposing stainless steel penicyclinders containing dried Trichophyton mentagrophytes to 10 mL of the test substance at the desired concentration, temperature and for the desired contact time. After which each penicylinder was removed aseptically and transferred to a neutralizing subculture medium. A peroxyacetic acid composition was also tested by this procedure.

[2] = system: spores of Clostridium sporogenes ATCC 3584; type: cell-based; conditions: pH 6.5, 10 hrs, Ambient
Mycobacterium bovis BCG = type: cell-based
[3] = system: Pseudomonas aeruginosa biofilm; assay: Biofilm removal from stainless steel coupon

## CCCCCCCC(=O)OO [Peroxyoctanoic Acid]
[1]; 400 ppm
  # Negative Tubes/# Tubes Tested: 10/10
[2]; 400 ppm
  # Negative Tubes/# Tubes Tested: 60/60

## CC(=O)OO [Peroxyacetic Acid]
[1]; 1000 ppm
  # Negative Tubes/# Tubes Tested: 10/10
Mycobacterium bovis BCG
  concentration of peroxyacetic acid needed to be as effective: ≥ 1250 ppm
[2]; 1000 ppm
  # Negative Tubes/# Tubes Tested: 59/60

## [Na+].[OH-] [caustic, NaOH]
[3]; caustic (3% of 50% NaOH) for 3 min at 160° F.
  survivors on enrichment of treated coupons: survivors on one of two coupons
[3]; total 6 min at 160° F., synthetic hard water 500 ppm, acridine orange fluorescence imaging
  biofilm cleaning performance, ranking: lastly
